Drawing on patent US20090137549A1, “Novel compounds useful for the treatment of degenerative & inflamatory diseases” (priority 2006, published 2009), this text covers IC50 and inhibition for 28 molecules.

Each structure is given as a SMILES string. pIC50: −log10 of the molar value. Counter-ions that a name gives are not always drawn.

The first experiment concerns the target T1, PDE1A (Homo sapiens, UniProt P54750). Briefly: PDE1A dose response, Cyclic Nucleotide Phosphodiesterase Assay Kit from Biomol (colorimetric). The class given is biochemical. The conditions noted are these: purified PDE1A enzyme, 100 μM cAMP. Put shortly:
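Purified PDE1A hydrolysed 100 μM cAMP with 5′-nucleotidase in Tris 20 mM pH 7.4 with calmodulin, Ca2+, Mg2+, 45 min at 37° C. Released phosphate read by malachite-green absorbance at 615 nm. Duplicate 8-point 1/3 dilutions from 20 μM, 1% DMSO; 10 μM vardenafil defined 100% inhibition.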
A word on the pIC50: it is −log10 of the IC50, conventionally taken in molar units. A higher pIC50 goes with a small IC50. As for `COc1cccc(C(=O)N2CCCC(c3nc4c(cnn4C4CCCCC4)c(=O)[nH]3)C2)c1` (stereo not shown) [Example 53, 1-cyclohexyl-6-(1-(3-methoxybenzoyl)piperidin-3-yl)-1H-pyrazolo[3,4-d]pyrimidin-4(5H)-one], the pIC50 is 6.30 to 7.00.
Still for that read-out and setting: next, `O=C(NCc1ccc(F)cc1)N1CC(c2nc3c(cnn3C3CCCCC3)c(=O)[nH]2)C1` [Example 30, 3-(1-cyclohexyl-4-oxo-4,5-dihydro-1H-pyrazolo[3,4-d]pyrimidin-6-yl)-N-(4-fluorobenzyl)azetidine-1-carboxamide]: 7.00 to 9.00.
The same measure, in the same setting: the value for `O=C(Oc1ccc(F)cc1)N1CC(c2nc3c(cnn3C3CCCCC3)c(=O)[nH]2)C1` [Example 121, 4-fluorophenyl 3-(1-cyclohexyl-4-oxo-4,5-dihydro-1H-pyrazolo[3,4-d]pyrimidin-6-yl)azetidine-1-carboxylate] was 7.00 to 9.00; that for `COc1cccc(C(=O)N2CC(c3nc4c(c(C)nn4C4CCCCC4)c(=O)[nH]3)C2)c1` [Example 52, 1-cyclohexyl-6-(1-(3-methoxybenzoyl)azetidin-3-yl)-3-methyl-1H-pyrazolo[3,4-d]pyrimidin-4(5H)-one] was 6.30 to 7.00; that for `Cc1nn(C2CCCCC2)c2nc(C3CN(C(=O)OC(C)(C)C)C3)[nH]c(=O)c12` [Example 123, tert-butyl 3-(1-cyclohexyl-3-methyl-4-oxo-4,5-dihydro-1H-pyrazolo[3,4-d]pyrimidin-6-yl)azetidine-1-carboxylate] was 6.30 to 7.00.
On the same count and under the same terms, the value for `Cc1nn(C2CCCCC2)c2nc(C3CCCN(S(=O)(=O)c4ccccc4Cl)C3)[nH]c(=O)c12` (stereo not shown) [Example 100, 6-(1-(2-chlorophenylsulfonyl)piperidin-3-yl)-1-cyclohexyl-3-methyl-1H-pyrazolo[3,4-d]pyrimidin-4(5H)-one] was 5.82 to 6.00.
`O=c1[nH]c(C2CN(c3ncc(CN4CCCCC4)s3)C2)nc2c1cnn2C1CCCCC1` [Example 135, 1-cyclohexyl-6-(1-(5-(piperidin-1-ylmethyl)thiazol-2-yl)azetidin-3-yl)-1H-pyrazolo[3,4-d]pyrimidin-4(5H)-one]: the pIC50 is 6.30 to 7.00.
The same measure, in the same setting: the value for `Cc1nn(C(C)(C)C)c2nc(C3CN(C(=O)Nc4ccc(F)cc4)C3)[nH]c(=O)c12` [Example 12, 3-(1-tert-butyl-3-methyl-4-oxo-4,5-dihydro-1H-pyrazolo[3,4-d]pyrimidin-6-yl)-N-(4-fluorophenyl)azetidine-1-carboxamide] was 7.00 to 9.00; that for `Cc1nn(C2CCCCC2)c2nc(C3CN(C(=O)NCc4ccc(Cl)c(Cl)c4)C3)[nH]c(=O)c12` [Example 39, 3-(1-cyclohexyl-3-methyl-4-oxo-4,5-dihydro-1H-pyrazolo[3,4-d]pyrimidin-6-yl)-N-(3,4-dichlorobenzyl)azetidine-1-carboxamide] was 7.00 to 9.00.
As to `O=C(Nc1ccc(C(F)(F)F)cc1)N1CC(c2nc3c(cnn3C3CCCCC3)c(=O)[nH]2)C1` [Example 35, 3-(1-cyclohexyl-4-oxo-4,5-dihydro-1H-pyrazolo[3,4-d]pyrimidin-6-yl)-N-(4-(trifluoromethyl)phenyl)azetidine-1-carboxamide], the pIC50 was 7.00 to 9.00.
The same measure, in the same setting: next, `CCCCNC(=O)N1CC(c2nc3c(cnn3C3CCCCC3)c(=O)[nH]2)C1` [Example 34, N-butyl-3-(1-cyclohexyl-4-oxo-4,5-dihydro-1H-pyrazolo[3,4-d]pyrimidin-6-yl)azetidine-1-carboxamide]: 7.00 to 9.00; `O=C(NCCN1CCCC1)N1CC(c2nc3c(cnn3C3CCCCC3)c(=O)[nH]2)C1` [Example 84, 3-(1-cyclohexyl-4-oxo-4,5-dihydro-1H-pyrazolo[3,4-d]pyrimidin-6-yl)-N-(2-(pyrrolidin-1-yl)ethyl)azetidine-1-carboxamide]: 6.00 to 6.30.
The molecule `COC(=O)c1ccc(C(=O)N2CCCC(c3nc4c(c(C)nn4C4CCCCC4)c(=O)[nH]3)C2)cc1` (stereo not shown) [Example 66, methyl 4-(3-(1-cyclohexyl-3-methyl-4-oxo-4,5-dihydro-1H-pyrazolo[3,4-d]pyrimidin-6-yl)piperidine-1-carbonyl)benzoate] had a pIC50 of 6.30 to 7.00.
On the same count and under the same terms, next, `O=C(OCC1CCCCC1)N1CC(c2nc3c(cnn3C3CCCCC3)c(=O)[nH]2)C1` [Example 120, cyclohexylmethyl 3-(1-cyclohexyl-4-oxo-4,5-dihydro-1H-pyrazolo[3,4-d]pyrimidin-6-yl)azetidine-1-carboxylate]: 7.00 to 9.00; `COC(=O)c1cccc(C(=O)N2CCCC(c3nc4c(c(C)nn4C4CCCCC4)c(=O)[nH]3)C2)c1` (stereo not shown) [Example 73, methyl 3-(3-(1-cyclohexyl-3-methyl-4-oxo-4,5-dihydro-1H-pyrazolo[3,4-d]pyrimidin-6-yl)piperidine-1-carbonyl)benzaate]: 6.30 to 7.00.
The same measure, in the same setting: the value for `Cn1c(N2CC(c3nc4c(cnn4C4CCCCC4)c(=O)[nH]3)C2)nc2ccccc21` [Example 131, 1-cyclohexyl-6-(1-(1-methyl-1H-benzo[d]imidazol-2-yl)azetidin-3-yl)-1H-pyrazolo[3,4-d]pyrimidin-4(5H)-one] was 6.00 to 6.30; that for `CC(C)(C)COC(=O)N1CC(c2nc3c(cnn3C3CCCCC3)c(=O)[nH]2)C1` [Example 122, neopentyl 3-(1-cyclohexyl-4-oxo-4,5-dihydro-1H-pyrazolo[3,4-d]pyrimidin-6-yl)azetidine-1-carboxylate] was 6.30 to 7.00.
Turning to `O=C(c1cccc2c1OCO2)N1CCCC(c2nc3c(cnn3C3CCCCC3)c(=O)[nH]2)C1` (stereo not shown) [Example 49, 6-(1-(benzo[d][1,3]dioxole-4-carbonyl)piperidin-3-yl)-1-cyclohexyl-1H-pyrazolo[3,4-d]pyrimidin-4(5H)-one], the pIC50 is 6.30 to 7.00.
Still for that read-out and setting: next, `Cc1ccc(S(=O)(=O)N2CCCC(c3nc4c(c(C)nn4C4CCCCC4)c(=O)[nH]3)C2)cc1` (stereo not shown) [Example 86, 1-cyclohexyl-3-methyl-6-(1-(p-tolylsulfonyl)piperidin-3-yl)-1H-pyrazolo[3,4-d]pyrimidin-4(5H)-one]: 6.00 to 6.30; `O=C(NC1CCCNC1)N1CC(c2nc3c(cnn3C3CCCCC3)c(=O)[nH]2)C1` (stereo not shown) [Example 182, 3-(1-Cyclohexyl-4-oxo-4,5-dihydro-1H-pyrazolo[3,4-d]pyrimidin-6-yl)-azetidine-1-carboxylic acid piperidin-3-ylamide trifluoroacetate]: 6.00 to 6.30; `Cc1nn(C2CCCCC2)c2nc(C3CCCN(C(=O)CCc4ccccc4)C3)[nH]c(=O)c12` (stereo not shown) [Example 112, 1-cyclohexyl-3-methyl-6-(1-(3-phenylpropanoyl)piperidin-3-yl)-1H-pyrazolo[3,4-d]pyrimidin-4(5H)-one]: 5.82 to 6.00.
Same read-out and setting: the value for `Cc1nn(C(C)(C)C)c2nc(C3CN(C(=O)Nc4ccccc4)C3)[nH]c(=O)c12` [Example 6, 3-(1-tert-butyl-3-methyl-4-oxo-4,5-dihydro-1H-pyrazolo[3,4-d]pyrimidin-6-yl)-N-phenylazetidine-1-carboxamide] was 7.00 to 9.00.
Same read-out and setting: the value for `COc1ccccc1C(=O)N1CC(c2nc3c(c(C)nn3C3CCCCC3)c(=O)[nH]2)C1` [Example 93, 1-cyclohexyl-6-(1-(2-methoxybenzoyl)azetidin-3-yl)-3-methyl-1H-pyrazolo[3,4-d]pyrimidin-4(5H)-one] was 6.00 to 6.30.
The molecule `Cc1nn(C2CCCCC2)c2nc(C3CN(C(=O)OCc4ccccc4)C3)[nH]c(=O)c12` [Example 115, Benzyl 3-(1-cyclohexyl-3-methyl-4-oxo-4,5-dihydro-1H-pyrazolo[3,4-d]pyrimidin-6-yl)azetidine-1-carboxylate] had a negative-log IC50 (pIC50) of 6.30 to 7.00.
On the same count and under the same terms, next, `CN(C)c1ccc(C(=O)N2CCCC(c3nc4c(cnn4-c4ccccc4)c(=O)[nH]3)C2)cc1` (stereo not shown) [Example 67, 6-(1-(4-(dimethylamino)benzoyl)piperidin-3-yl)-1-phenyl-1H-pyrazolo[3,4-d]pyrimidin-4(5H)-one]: 6.30 to 7.00; `O=c1[nH]c(C2CN(c3nc(-c4ccccc4)cs3)C2)nc2c1cnn2C1CCCCC1` [Example 159, 1-Cyclohexyl-6-(1-(4-phenylthiazol-2-yl)azetidin-3-yl)-1H-pyrazolo[3,4-d]pyrimidin-4-(5H)-one]: 7.00 to 9.00.

A further experiment has as its target T1, PDE1A. Description: PDE1A primary screening, cAMP dynamic HTRF kit from Cisbio. To be noted: 10 μM, control compounds of the primary screening, 100 nM cAMP. The class given is biochemical. An excerpt: For the primary screening an assay using the cAMP dynamic HTRF® kit from Cisbio (catnr 62AM2PEB) is used. Its principle is based on HTRF® technology (Homogeneous Time-Resolved Fluorescence). The method is a competitive immunoassay between native cAMP and the cAMP labeled with XL665. The tracer binding is visualized by a monoclonal antibody against cAMP, labeled with Cryptate. The specific signal (i.e. energy transfer) is inversely proportional to the concentration of cAMP in the sample (see FIG. 1).
For the enzymatic reaction, a mixture is made of 20 μL with purified PDE1A enzyme, 100 nM cAMP and the compound (10 μM in a final concentration of 1% DMSO) in a black 384-plate. The reaction buffer is Tris 20 mM pH 7.4, 4 μg/mLl calmodulin, 3 mM MgCl2, 1.5 mM CaCl2, 0.2 mg/mL BSA and 0.001% Brij-35®. After an incubation of 30 minutes at room temperature, the reaction is stopped by the addition of 10 μL labelled cAMP-XL665 and 10 μL anti-cAMP-Cryptate. After 1 hour incubation at room temperature, the readout is performed on the Envision (excitation 360 nm; emission donor 615 nm; emission acceptor 665 nm).
PDE1A hydrolyses cAMP into 5′AMP; this low cAMP concentration will result in a high signal. A PDE1A inhibitor will result in a decrease of the signal. […]
(In general: In TR-FRET formats the signal depends on donor and acceptor labels being close together.)
For orientation: inhibition means the percentage by which the read-out fell short of the control. Take `CCCCOc1cc(CC2CNC(=O)N2)ccc1OC` (stereo not shown) [Ro-20-1724]: the inhibition is recorded as 0%.

The same experiment, now with this note: control compounds of the primary screening, 100 nM cAMP.
As to `CCCOc1ccccc1-c1nc2nn[nH]c2c(=O)[nH]1` [Zaprinast], the inhibition at 10 µM is roughly 50%.
